Source: US11986532B2 (Arvinas Operations, Inc., priority 2021, dated 2024)
Like-named read-outs stand apart in the source and are kept apart here.

Target: T1, BCL6 (Homo sapiens, UniProt P41182)
T1 construct: endogenous in cells; host or cells: T47D breast cancer epithelial cells
Assay: Immunofluorescence protocol for high content imaging of BCL6 (degradation) in T47D cells, 3 days compound treatment
Format: cell-based
Settings: for Dmax: read-out: Mean Dmax (%)** category; for DC50: read-out: Mean DC50 (nM)* category
Method: Immunofluorescence Protocol for High Content Imaging of BCL6
T47D cells were seeded in 100 μl volume of RPMI1640-10% FBS in a 96-well black/clear bottom plates for adherent lines (Corning #3904).
Day 1. T47D breast cancer epithelial cells were seeded at a density so that confluence is ˜70-90% at endpoint. Cells were seeded at 7K/0.1 ml/well the morning prior to the addition of exemplary bifunctional degradation compounds.
Day 2. Prepare an 11 point 3-fold serial dilution of exemplary bifunctional compound in DMSO and aliquot an appropriate volume to cell growth media to generate a 2× final concentration of exemplary bifunctional compound. Add an equal volume (0.1 ml) of 2× exemplary bifunctional compound/media mix to previously plated cells, for a final top concentration in aqueous cell growth media of 0.1 or 1 μM. Incubate for 3 days at 37° C., 5% CO2.
Day 5 Immunofluorescence. Discard cell media. Wash wells with 200 μl of room temperature phosphate-buffered saline (PBS). Prepared 4% paraformaldehyde (PFA) from 16% PFA (Electron Microscopy Sciences #15710) using 1×PBS. Fifty μl of 4% PF was added to each well and incubate for 15 minutes at room temperature to fix the cells. The PFA was aspirated and the cells washed twice with PBS (200 μl)).
Prepared 0.1% Triton X-100 in PBS using 10% triton X-100 stock. The cells were permeabilized by adding 100 ul of the 0.1% Triton X-100 in PBS to each well to permeabilize cells and incubating at room temperature for 15 minutes. Cells were washed twice with PBS.
Prepared 3% BSA/PBS (from Thermofisher #37515 Blocker BSA in TBS, 10%), and 100 ul was added to each well. The cells were incubated for at least 1 hour at room temperature.
Prepared 1% BSA/PBS using Blocker BSA/PBS, and the 3% BSA/PBS removed from the wells.
For no primary antibody controls, 50 μl 1% BSA/PBS was added.
Primary antibody (BCL6 Rb Ab, CST-14895, Cell Signaling) was diluted 1:300 in 1% BSA/PBS using Blocker BSA/PBS.
Fifty μl of primary antibody added to all remaining wells (i.e., all wells other than the primary antibody controls) and the cells were incubated overnight at 4° C. with slow orbital movement.
Day 6. Contents of the wells was removed and the cells washed four times with 200 ul PBS. 1% BSA/PBS was prepared using Blocker BSA in PBS.
Diluted secondary antibody goat anti-Rb IgG Alexa-488 1:1000, and cell mask-Alexa-647 1:3000 in 1% BSA/PBS in the same mix. Add 50 μl to each well and incubate at room temperature for 1 hour in the dark.
Cells were washed three times with 200 ul PBS, and then incubated for 10 minutes with 100 ul Hoechst dye at 1 μg/mL (20 mM stock) to stain cell nuclei. Wells were then washed with 200 μl PBS, and 100 ul of PBS was added to each well and the plate covered plate with a plastic opaque cover. Plates were stored at 4° C. and covered in aluminum foil until imaged.
Plates were equilibrated to room temperature prior to reading. The bottom of the plate was wiped with 70% isopropanol immediately prior to imaging.
10×, 4 fields/well, include Top hat smoothing in the analysis protocol.
16% paraformaldehyde: Electron Microscopy Sciences #15710
Hoechst: Thermofisher #62249
Blocker BSA in PBS, 10%: Thermofisher #37515
Blocker BSA in TBS, 10%: Thermofisher #37520
Goat anti-rabbit or mouse AlexaFluor-488: Thermofisher #A11008
Cell mask deep red AlexaFluor-647: Thermofisher #C10046
Wash buffer, PBS: 20×PBS, Thermofisher

[1] = T47D cells, 3 days compound treatment

| DC50 [1] [nM] | Dmax [1] [%] | Compound | Dmax (T47D) [%] | DC50 [nM] |
| --- | --- | --- | --- | --- |
| < 10 | ≥ 70 | CNC(=O)COc1cc2c(F)c(Nc3nc(N4CCC(CN5CCC6(CN(c7ccc8c(c7)CN(C7CCC(=O)NC7=O)C8=O)C6)C(F)(F)C5)CC4)ncc3Cl)ccc2n(C(C)C)c1=O (stereo not drawn) [Compound 171, 2-{[6-({5-chloro-2-[4-({2-[2-(2,6-dioxopiperidin-3-yl)-1-oxo-2,3-dihydro-1H-isoindol-5-yl]-5,5-difluoro-2,7-diazaspiro[3.5]nonan-7-yl}methyl)piperidin-1-yl]pyrimidin-4-yl}amino)-5-fluoro-2-oxo-1-(propan-2-yl)-1,2-dihydroquinolin-3-yl]oxy}-N-methylacetamide] | – | – |
| < 10 | 50 to 70 | CNC(=O)COc1cc2cc(Nc3nc(N4CCC(OC5CCC6(CC5)CN(c5cccc7c5CN(C5CCC(=O)NC5=O)C7=O)C6)CC4)ncc3Cl)ccc2n(C(C)C)c1=O (stereo not drawn) [Compound 61, 2-{[6-({5-chloro-2-[4-({2-[2-(2,6-dioxopiperidin-3-yl)-1-oxo-2,3-dihydro-1H-isoindol-4-yl]-2-azaspiro[3.5]nonan-7-yl}oxy)piperidin-1-yl]pyrimidin-4-yl}amino)-2-oxo-1-(propan-2-yl)-1,2-dihydroquinolin-3-yl]oxy}-N-methylacetamide] | – | – |

Second part, the compound before the results:

| Compound | DC50 [1] [nM] | Dmax [1] [%] | Dmax (T47D) [%] | DC50 [nM] |
| --- | --- | --- | --- | --- |
| CNC(=O)COc1cc2cc(Nc3nc(N4CCC(O[C@H]5C[C@H](N6CCC7(CN(c8ccc9c(c8F)CN(C8CCC(=O)NC8=O)C9=O)C7)C6)C5)CC4)ncc3Cl)ccc2n(C(C)C)c1=O (stereo partly drawn) [Compound 405, 2-({6-[(5-chloro-2-{4-[(1r,3r)-3-{2-[2-(2,6-dioxopiperidin-3-yl)-4-fluoro-1-oxo-2,3-dihydro-1H-isoindol-5-yl]-2,6-diazaspiro[3.4]octan-6-yl}cyclobutoxy]piperidin-1-yl}pyrimidin-4-yl)amino]-2-oxo-1-(propan-2-yl)-1,2-dihydroquinolin-3-yl}oxy)-N-methylacetamide] | – | – | ≥ 70 | < 10 |
| CNC(=O)COc1cc2cc(Nc3nc(N4CCC(O[C@H]5C[C@H](N6CCC(c7ccc8c(c7)C(=O)N(C7CCC(=O)NC7=O)C8=O)C(C)(C)C6)C5)CC4)ncc3Cl)ccc2n(C(C)C)c1=O (stereo partly drawn) [Compound 399, 2-({6-[(5-chloro-2-{4-[(1r,3r)-3-{4-[2-(2,6-dioxopiperidin-3-yl)-1,3-dioxo-2,3-dihydro-1H-isoindol-5-yl]-3,3-dimethylpiperidin-1-yl}cyclobutoxy]piperidin-1-yl}pyrimidin-4-yl)amino]-2-oxo-1-(propan-2-yl)-1,2-dihydroquinolin-3-yl}oxy)-N-methylacetamide] | – | – | ≥ 70 | 10 to 50 |
| CNC(=O)COc1cc2cc(Nc3nc(N4CCC(CN5CCC6(CC5)CCN6c5ccc6c(c5)CN(C5CCC(=O)NC5=O)C6=O)CC4)ncc3Cl)ccc2n(C(C)C)c1=O (stereo not drawn) [Compound 336, 2-{[6-({5-chloro-2-[4-({1-[2-(2,6-dioxopiperidin-3-yl)-1-oxo-2,3-dihydro-1H-isoindol-5-yl]-1,7-diazaspiro[3.5]nonan-7-yl}methyl)piperidin-1-yl]pyrimidin-4-yl}amino)-2-oxo-1-(propan-2-yl)-1,2-dihydroquinolin-3-yl]oxy}-N-methylacetamide] | – | – | ≥ 70 | < 10 |
| CNC(=O)COc1cc2cc(Nc3nc(N4CCC(OC5CCN(c6ccc7c(c6)CN(C6CCC(=O)NC6=O)C7=O)CC5)CC4)ncc3Cl)ccc2n(C(C)C)c1=O (stereo not drawn) [Compound 28, 2-{[6-({5-chloro-2-[4-({1-[2-(2,6-dioxopiperidin-3-yl)-1-oxo-2,3-dihydro-1H-isoindol-5-yl]piperidin-4-yl}oxy)piperidin-1-yl]pyrimidin-4-yl}amino)-2-oxo-1-(propan-2-yl)-1,2-dihydroquinolin-3-yl]oxy}-N-methylacetamide] | < 10 | 50 to 70 | – | – |
| CNC(=O)COc1cc2c(F)c(Nc3nc(N4CCC(O[C@H]5C[C@H](N6CCC(c7ccc8c(c7F)CN([C@@H]7CCC(=O)NC7=O)C8=O)CC6)C5)CC4)ncc3Cl)ccc2n(C(C)C)c1=O [Compound 381, 2-({6-[(5-chloro-2-{4-[(1r,3r)-3-(4-{2-[(3R)-2,6-dioxopiperidin-3-yl]-4-fluoro-1-oxo-2,3-dihydro-1H-isoindol-5-yl}piperidin-1-yl)cyclobutoxy]piperidin-1-yl}pyrimidin-4-yl)amino]-5-fluoro-2-oxo-1-(propan-2-yl)-1,2-dihydroquinolin-3-yl}oxy)-N-methylacetamide] | – | – | ≥ 70 | < 10 |
| CNC(=O)COc1cc2cc(Nc3nc(N4CCC(N5CCC6(CN(CC7CCN(c8ccc9c(c8)CN(C8CCC(=O)NC8=O)C9=O)CC7)C6)C5)CC4)ncc3Cl)ccc2n(C(C)C)c1=O (stereo not drawn) [Compound 236, 2-({6-[(5-chloro-2-{4-[2-({1-[2-(2,6-dioxopiperidin-3-yl)-1-oxo-2,3-dihydro-1H-isoindol-5-yl]piperidin-4-yl}methyl)-2,6-diazaspiro[3.4]octan-6-yl]piperidin-1-yl}pyrimidin-4-yl)amino]-2-oxo-1-(propan-2-yl)-1,2-dihydroquinolin-3-yl}oxy)-N-methylacetamide] | – | – | 50 to 70 | < 10 |
| CNC(=O)COc1cc2cc(Nc3nc(N4CCC(O[C@H]5C[C@H](N6CCN(c7c(F)cc8c(c7F)CN(C7CCC(=O)NC7=O)C8=O)CC6)C5)CC4)ncc3Cl)ccc2n(C(C)C)c1=O (stereo partly drawn) [Compound 386, 2-({6-[(5-chloro-2-{4-[(1r,3r)-3-{4-[2-(2,6-dioxopiperidin-3-yl)-4,6-difluoro-1-oxo-2,3-dihydro-1H-isoindol-5-yl]piperazin-1-yl}cyclobutoxy]piperidin-1-yl}pyrimidin-4-yl)amino]-2-oxo-1-(propan-2-yl)-1,2-dihydroquinolin-3-yl}oxy)-N-methylacetamide] | – | – | 50 to 70 | < 10 |
| CNC(=O)COc1cc2cc(Nc3nc(N4CCC(CN5CCC6(CC5)CN(c5ccc7c(c5)C(=O)N(C5CCC(=O)NC5=O)C7=O)C6)CC4)ncc3Cl)ccc2n(C2CC2)c1=O (stereo not drawn) [Compound 50, 2-{[6-({5-chloro-2-[4-({2-[2-(2,6-dioxopiperidin-3-yl)-1,3-dioxo-2,3-dihydro-1H-isoindol-5-yl]-2,7-diazaspiro[3.5]nonan-7-yl}methyl)piperidin-1-yl]pyrimidin-4-yl}amino)-1-cyclopropyl-2-oxo-1,2-dihydroquinolin-3-yl]oxy}-N-methylacetamide] | < 10 | 50 to 70 | – | – |
| CNC(=O)COc1cc2cc(Nc3nc(N4CCC(CN5CCC6(CN(c7cccc8c7C(=O)N(C7CCC(=O)NC7=O)C8=O)C6)C(F)C5)CC4)ncc3Cl)ccc2n(C(C)C)c1=O (stereo not drawn) [Compound 325, 2-{[6-({5-chloro-2-[4-({2-[2-(2,6-dioxopiperidin-3-yl)-1,3-dioxo-2,3-dihydro-1H-isoindol-4-yl]-5-fluoro-2,7-diazaspiro[3.5]nonan-7-yl}methyl)piperidin-1-yl]pyrimidin-4-yl}amino)-2-oxo-1-(propan-2-yl)-1,2-dihydroquinolin-3-yl]oxy}-N-methylacetamide] | – | – | 50 to 70 | < 10 |
| CNC(=O)COc1cc2cc(Nc3nc(N4CCC5(CCN(CC6CCN(c7ccc8c(c7)CN(C7CCC(=O)NC7=O)C8=O)CC6)C5)C4)ncc3Cl)ccc2n(C(C)C)c1=O (stereo not drawn) [Compound 3, 2-{[6-({5-chloro-2-[7-({1-[2-(2,6-dioxopiperidin-3-yl)-1-oxo-2,3-dihydro-1H-isoindol-5-yl]piperidin-4-yl}methyl)-2,7-diazaspiro[4.4]nonan-2-yl]pyrimidin-4-yl}amino)-2-oxo-1-(propan-2-yl)-1,2-dihydroquinolin-3-yl]oxy}-N-methylacetamide] | < 10 | 50 to 70 | – | – |
